Measurements from paper PMC10609114, “Melittin-Related Peptides Interfere with Sandfly Fever Naples Virus Infection by Interacting with Heparan Sulphate” (Microorganisms, 2023).
Peptide text beside a SMILES is read from it.

Experiments:
SFNV [1] = experiment: Antiviral co-treatment assay (CPE, crystal violet); assay type: cell-based, sandfly fever Naples virus; details: Vero cells, peptide and SFNV (200 TCID50/mL) added together 1 h at 37 °C, CPE after 5 days; read-out: inhibitory concentration of 50% (IC50), co-treatment
Method: (§1) To analyze whether peptides were endowed with antiviral activity against SFNV, and, specifically, what stage of the infection was affected, different experimental procedures were carried out: (i) co-treatment assay: the cells (5 × 10^5/mL) were incubated with each peptide (at non-cytotoxic concentrations) and infected with the virus (200 TCID50/mL) at the same time (1 h at 37 °C); (ii) virus pre-treatment assay: […] and the mixture was subsequently titrated on cells; (iii) cell pre-treatment assay: cells were previously incubated with the peptide and then infected (1 h at 37 °C); (iv) post-treatment assay: peptide was incubated with the cells after the viral adsorption step (1 h at 37 °C). Following the incubation, the cell monolayer was rinsed three times with medium and than supplemented with DMEM 5% FBS. After 5 days post-infection, cythopathic effect (CPE) was observed and cells were stained with 0.5% crystal violet. All experiments were performed in triplicate. The inhibition rate of the infectivity was evaluated by CPE observed in the wells treated with the peptides to CPE in positive control (cells infected with virus, without peptide).
(§2) The difference between the assays was the timing of incubation of peptides on the cell monolayer. […]

SFNV [2] = experiment: Antiviral virus pre-treatment assay (CPE, crystal violet); assay type: cell-based, sandfly fever Naples virus; details: peptide incubated with SFNV 1 h at 37 °C, mixture titrated on Vero cells, CPE after 5 days; read-out: inhibitory concentration of 50% (IC50), virus pre-treatment
Method: as §1, §2

Vero cells = experiment: Cytotoxicity assay (MTT); assay type: cell-based; details: 24 h at 37 °C, peptide 50 to 3.125 μM, triplicate
Method: Confluent Vero cells were treated with twofold serial dilutions of each peptide (50, 25, 12.5, 6.25, 3.125 μM). The 96-well plates were incubated at 37 °C/5% CO2 for 24 h; then, cell viability was analyzed by the 3-(4,5-Dimethylthiazol-2-yl)-2,5-Diphenyltetrazolium Bromide (MTT, Sigma-Aldrich, St. Louis, MO, USA) assay based on the reduction of the yellowish MTT to dark blue formazan salts. In brief, at the end of incubation, 100 μL of MTT solution (5 mg/mL) was incubated in each well for 3 h at 37 °C. Supernatant was removed and 100 μL of DMSO 100% (Sigma Aldrich) was added to dissolve formazan. Cytotoxicity was evaluated by spectrophotometric reading at 540 nm. Cell viability was calculated as a percentage of control cells. All experiments were performed in triplicate and means and standard deviations were reported. Nonlinear regression analysis was performed using GraphPad Prism software (version 8.0.1) to extract the CC50.
A preliminary experiment was carried out to evaluate the maximal non-cytotoxic concentration of RV-23 and AR-23. Twofold serial dilutions of each peptide were incubated with Vero cells for 24 h at 37 °C.
Figure 1 Cytotoxicity analysis after RV-23 and AR-23 treatment. Vero cells were treated with each peptide in the range of concentrations from 50 to 3.125 μM. After 24 h, MTT assay was carried out. Cell viability was calculated as a percentage of control cells. […]

SFNV [3] = experiment: Heparin assay: neutralization of SFNV infection by heparin; assay type: cell-based, sandfly fever Naples virus; details: Vero cells, heparin 266.7 to 0.26 μM with SFNV (200 TCID50/mL) 1 h at 37 °C, CPE after 5 days
Method: To analyze if heparin could neutralize the virus binding to cells, Vero were infected with SFNV (200 TCID50/mL) and simultaneously treated with serial heparin dilutions (1.56, […], 25, 100, 400, and 1600 μg/mL) for 1 h at 37 °C. Then, the cell monolayer was washed with medium and incubated in the presence of DMEM 5% FBS for 5 days until the CPE appeared. To analyze the simultaneous effect of heparin and each peptide against SFNV infection, a standard concentration of RV-23 or AR-23 (10 μM) was incubated together with the same above-mentioned heparin concentrations. At the same time, the virus (200 TCID50/mL) was added to cell monolayer and subsequently incubated for 1 h at 37 °C. The infection was observed after 5 days infection via CPE.
Phleboviruses use GAGs for the viral entry, including heparin and heparan sulphate (HS). […] Different concentrations of heparin were incubated with the virus during the adsorption phase, and after 5 days of infection, the CPE was analyzed (Figure 3A).
Figure 3 Heparin assay. […] Serial heparin concentrations were incubated with the virus and each peptide […] on Vero cells, and after 5 days of infection, CPE was analyzed by crystal violet staining. […]

With CC[C@H](C)[C@H](NC(=O)[C@H](C)N)C(=O)NCC(=O)N[C@@H](CO)C(=O)N[C@H](C(=O)N[C@@H](CC(C)C)C(=O)NCC(=O)N[C@@H](C)C(=O)N[C@@H](CC(C)C)C(=O)N[C@@H](C)C(=O)N[C@@H](CCCCN)C(=O)NCC(=O)N[C@@H](CC(C)C)C(=O)N1CCC[C@H]1C(=O)N[C@H](C(=O)N[C@@H](CC(C)C)C(=O)N[C@H](C(=O)N[C@@H](CO)C(=O)N[C@@H](Cc1c[nH]c2ccccc12)C(=O)N[C@H](C(=O)N[C@@H](CCCCN)C(=O)N[C@@H](CC(N)=O)C(=O)N[C@@H](CCCNC(=N)N)C(N)=O)[C@@H](C)CC)[C@@H](C)CC)[C@@H](C)O)[C@@H](C)CC [AR-23] (H-AIGSILGALAKGLPTLISWIKNR-NH2) the IC50 (SFNV [1]) was 12.5 µM, the IC50 (SFNV [2]) was 10 µM and the “Cytotoxicity (cell viability) in words” value (Vero cells) was “consistently affected cell viability at 50 μM”.
For CC[C@H](C)[C@H](NC(=O)[C@@H](N)CCCNC(=N)N)C(=O)NCC(=O)N[C@H](C(=O)N[C@@H](CC(C)C)C(=O)N[C@@H](CC(C)C)C(=O)N[C@@H](C)C(=O)N[C@@H](CCCNC(=N)N)C(=O)N[C@@H](CC(C)C)C(=O)N1CCC[C@H]1C(=O)N[C@@H](CCCCN)C(=O)N[C@@H](CC(C)C)C(=O)N[C@@H](Cc1ccccc1)C(=O)N[C@@H](CO)C(=O)N[C@@H](CC(C)C)C(=O)N[C@@H](Cc1ccccc1)C(=O)N[C@@H](CCCCN)C(=O)N[C@@H](CC(C)C)C(=O)N[C@@H](CCSC)C(=O)NCC(=O)N[C@@H](CCCCN)C(=O)N[C@@H](CCCCN)C(=O)N[C@H](C(N)=O)C(C)C)C(C)C [RV-23] (H-RIGVLLARLPKLFSLFKLMGKKV-NH2), the IC50 (SFNV [1]) was 10 µM, the IC50 (SFNV [2]) was 6.25 µM and the “Cytotoxicity (cell viability) in words” value (Vero cells) was “not cytotoxic up to the highest dose”.
heparin was tested, and the “Inhibition of SFNV infection by heparin” value (SFNV [3]) was “strongly blocked the viral infection up to 4.2 μM”.
